Literature values in patent US4241056A, “Penicillins and salts thereof” (Boehringer Ingelheim GmbH, priority 1978, dated 1980).
Structures can show the parent of a compound that is named as a salt.

Legend:
Klebsiella = conditions: cited from earlier work
various kinds of E. coli = conditions: cited from earlier work
Pseudomonas = conditions: in vivo as well as in vitro; cited from earlier work

| SMILES | activity against Klebsiella (Klebsiella) | activity against various kinds of E. coli (various kinds of E. coli) | antipseudomonal activity (Pseudomonas) |
| --- | --- | --- | --- |
| CC1(C)S[C@@H]2[C@H](NC(=O)[C@H](NC(=O)N3CCNC3=O)c3ccccc3)C(=O)N2[C@H]1C(=O)O [Azlocillin, 6-{D-α-[(2-oxo-imidazolidine-1-yl)carbonylamino]-4-phenyl-acetamino}-pencillanic acid sodium salt] | only a moderate activity | only a moderate activity |  |
| CC1(C)S[C@@H]2[C@H](NC(=O)[C@H](C(=O)O)c3ccsc3)C(=O)N2[C@H]1C(=O)O [Ticarcillin] |  |  | only a poor activity |
